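Each compound was tested at five concentrations against cells in 96-well plates for 48 hours. Abbreviation: GI50, concentration required for 50% inhibition of growth. TGI: total growth inhibition.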
What was measured:
Experiment in all cases: NCI anticancer screen, dose series, 48 h
[1] = test system: IGROV1 ovarian
[2] = test system: PC-3 prostate
[3] = test system: SF-268 CNS
[4] = test system: OVCAR-5 ovarian
[5] = test system: SNB-75 CNS
[6] = test system: SK-OV-3 ovarian
[7] = test system: OVCAR-4 ovarian
[8] = test system: HL-60(TB) leukemia
[9] = test system: SF-539 CNS
[10] = test system: 786-0 renal
[11] = test system: T-47D breast
[12] = test system: DU-145 prostate
[13] = test system: MDA-N
[14] = test system: SNB-19 CNS
[15] = test system: UACC-62 melanoma
[16] = test system: SR leukemia
[17] = test system: NCI-H522 lung
[18] = test system: NCI-H460 lung
[19] = test system: SN12C renal
[20] = test system: CCRF-CEM leukemia
[21] = test system: SK-MEL-5 melanoma
[22] = test system: SF-295 CNS
[23] = test system: EKVX NSCLC
[24] = test system: OVCAR-8 ovarian
[25] = test system: SK-MEL-28 melanoma
[26] = test system: CAKI-1 renal
[27] = test system: MOLT-4 leukemia
[28] = test system: NCI-H23 lung
[29] = test system: HCT-116 colon
[30] = test system: U251 CNS
[31] = test system: A549 NSCLC
[32] = test system: MDA-MB-435
[33] = test system: COLO 205 colon
[34] = test system: HOP-62 NSCLC
[35] = test system: LOX IMVI melanoma
[36] = test system: HCT-15 colon
[37] = test system: UO-31 renal
[38] = test system: MDA-MB-231 breast
[39] = test system: HT29 colon
[40] = test system: M14 melanoma
[41] = test system: RPMI-8226 leukemia
[42] = test system: MCF7 breast
[43] = test system: OVCAR-3 ovarian
[44] = test system: HCC-2998 colon
[45] = test system: SW-620 colon
[46] = test system: SK-MEL-2 melanoma
[47] = test system: A498 renal
[48] = test system: MALME-3M melanoma
[49] = test system: HS 578T breast
[50] = test system: HOP-92 NSCLC
[51] = test system: KM12 colon
[52] = test system: NCI/ADR-RES ovarian
[53] = test system: K-562 leukemia
[54] = test system: TK-10 renal
[55] = test system: ACHN renal
[56] = test system: UACC-257 melanoma
[57] = test system: RXF 393 renal
[58] = test system: NCI-H226 lung
[59] = test system: BT-549 breast

CC1(C)CC2=NOS3=C2C(=NO3)C1c1ccccn1 (centres undefined)
TGI [1]: 84.5 µM
TGI [2]: > 100 µM
TGI [3]: > 100 µM
TGI [4]: > 100 µM
TGI [5]: > 100 µM
TGI [6]: > 100 µM
TGI [7]: > 100 µM
TGI [8]: 51.7 µM
TGI [9]: > 100 µM
TGI [10]: > 100 µM
TGI [11]: > 100 µM
TGI [12]: > 100 µM
TGI [13]: 92.9 µM
TGI [14]: > 100 µM
TGI [15]: > 100 µM
TGI [16]: 81 µM
TGI [17]: 90.2 µM
TGI [18]: > 100 µM
TGI [19]: > 100 µM
TGI [20]: 78.4 µM
TGI [21]: 34.8 µM
TGI [22]: > 100 µM
TGI [23]: > 100 µM
TGI [24]: > 100 µM
TGI [25]: > 100 µM
TGI [26]: > 100 µM
TGI [27]: 95.6 µM
TGI [28]: > 100 µM
TGI [29]: > 100 µM
TGI [30]: > 100 µM
TGI [31]: > 100 µM
TGI [32]: 39 µM
TGI [33]: 80.5 µM
TGI [34]: > 100 µM
TGI [35]: > 100 µM
TGI [36]: > 100 µM
TGI [37]: > 100 µM
TGI [38]: > 100 µM
TGI [39]: > 100 µM
TGI [40]: > 100 µM
TGI [41]: > 100 µM
TGI [42]: > 100 µM
TGI [43]: > 100 µM
TGI [44]: > 100 µM
TGI [45]: > 100 µM
TGI [46]: > 100 µM
TGI [47]: > 100 µM
TGI [48]: > 100 µM
TGI [49]: > 100 µM
TGI [50]: > 100 µM
TGI [51]: > 100 µM
TGI [52]: > 100 µM
TGI [53]: 62.8 µM
TGI [54]: > 100 µM
TGI [55]: > 100 µM
TGI [56]: > 100 µM

CC1=C/C(=N\N(C)C)C(C(O)(C(F)(F)F)C(F)(F)F)C(C)(C)C1 (centres undefined)
TGI [1]: > 100 µM
TGI [2]: > 100 µM
TGI [3]: > 100 µM
TGI [4]: > 100 µM
TGI [5]: > 100 µM
TGI [7]: > 100 µM
TGI [8]: > 100 µM
TGI [9]: > 100 µM
TGI [10]: > 100 µM
TGI [57]: > 100 µM
TGI [11]: > 100 µM
TGI [12]: > 100 µM
TGI [13]: > 100 µM
TGI [14]: > 100 µM
TGI [15]: > 100 µM
TGI [16]: > 100 µM
TGI [17]: > 100 µM
TGI [18]: > 100 µM
TGI [19]: > 100 µM
TGI [20]: > 100 µM
TGI [21]: > 100 µM
TGI [22]: > 100 µM
TGI [58]: > 100 µM
TGI [23]: > 100 µM
TGI [24]: > 100 µM
TGI [25]: > 100 µM
TGI [26]: > 100 µM
TGI [27]: > 100 µM
TGI [28]: > 100 µM
TGI [29]: > 100 µM
TGI [30]: > 100 µM
TGI [31]: > 100 µM
TGI [32]: > 100 µM
TGI [33]: > 100 µM
TGI [34]: > 100 µM
TGI [35]: > 100 µM
TGI [36]: > 100 µM
TGI [37]: > 100 µM
TGI [38]: > 100 µM
TGI [39]: > 100 µM
TGI [40]: > 100 µM
TGI [41]: > 100 µM
TGI [42]: > 100 µM
TGI [43]: 87.8 µM
TGI [44]: > 100 µM
TGI [45]: > 100 µM
TGI [46]: > 100 µM
TGI [47]: > 100 µM
TGI [48]: > 100 µM
TGI [49]: > 100 µM
TGI [50]: 81 µM
TGI [51]: > 100 µM
TGI [52]: > 100 µM
TGI [53]: > 100 µM
TGI [54]: > 100 µM
TGI [55]: > 100 µM
TGI [56]: > 100 µM

CN1CCN(Cc2ccc(NC(=O)c3[nH]ncc3Nc3ccnc4ccsc34)cc2)CC1
GI50 [1]: 2.82 µM
TGI [1]: 16.7 µM
GI50 [2]: 3.25 µM
TGI [2]: 20.2 µM
GI50 [3]: 3.22 µM
TGI [3]: 11 µM
GI50 [4]: 4.08 µM
TGI [4]: 14.7 µM
GI50 [5]: 0.222 µM
TGI [5]: 3.54 µM
GI50 [6]: 1.05 µM
TGI [6]: 23.5 µM
GI50 [7]: 2.32 µM
TGI [7]: 7.47 µM
GI50 [8]: 2.49 µM
TGI [8]: 5.85 µM
GI50 [9]: 1.35 µM
TGI [9]: 3.42 µM
GI50 [10]: 3.84 µM
TGI [10]: 13.6 µM
GI50 [57]: 2.01 µM
TGI [57]: 4.76 µM
GI50 [11]: 4.95 µM
TGI [11]: 50.6 µM
GI50 [12]: 2.17 µM
TGI [12]: 11.6 µM
GI50 [14]: 2.81 µM
TGI [14]: 20.2 µM
GI50 [15]: 11.2 µM
TGI [15]: 30.2 µM
GI50 [16]: 1.92 µM
TGI [16]: 7 µM
GI50 [17]: 1.98 µM
TGI [17]: 13.5 µM
GI50 [18]: 3.15 µM
TGI [18]: 12 µM
GI50 [19]: 2.78 µM
TGI [19]: 14.4 µM
GI50 [20]: 2.45 µM
TGI [20]: 9.26 µM
GI50 [21]: 2.48 µM
TGI [21]: 11.5 µM
GI50 [22]: 3.73 µM
TGI [22]: 14.2 µM
GI50 [58]: 2.35 µM
TGI [58]: 13.4 µM
GI50 [23]: 2.74 µM
TGI [23]: 9.81 µM
GI50 [24]: 3.63 µM
TGI [24]: 16.4 µM
GI50 [59]: 4.3 µM
TGI [59]: 15.9 µM
GI50 [25]: 5.23 µM
TGI [25]: 18.4 µM
GI50 [26]: 6.04 µM
TGI [26]: 27.6 µM
GI50 [27]: 2.09 µM
TGI [27]: 7.93 µM
GI50 [28]: 2.03 µM
TGI [28]: 6.64 µM
GI50 [29]: 1.51 µM
TGI [29]: 11.7 µM
GI50 [30]: 2.4 µM
TGI [30]: 13.6 µM
GI50 [31]: 3.04 µM
TGI [31]: 14.5 µM
GI50 [32]: 3.22 µM
TGI [32]: 17.9 µM
GI50 [33]: 1.42 µM
TGI [33]: 8.32 µM
GI50 [34]: 2.82 µM
TGI [34]: 14.2 µM
GI50 [35]: 1.33 µM
TGI [35]: 4.59 µM
GI50 [36]: 3.25 µM
TGI [36]: 16.1 µM
GI50 [37]: 1.78 µM
TGI [37]: 10.1 µM
GI50 [38]: 3.56 µM
TGI [38]: 9.71 µM
GI50 [39]: 2.04 µM
TGI [39]: 33.8 µM
GI50 [40]: 3.69 µM
TGI [40]: 16.9 µM
GI50 [41]: 2.95 µM
TGI [41]: 7.18 µM
GI50 [42]: 0.489 µM
TGI [42]: 11.7 µM
GI50 [43]: 2.34 µM
TGI [43]: 11.5 µM
GI50 [44]: 2.75 µM
TGI [44]: 10.1 µM
GI50 [45]: 2.6 µM
TGI [45]: 12 µM
GI50 [46]: 3.86 µM
TGI [46]: 14.7 µM
GI50 [47]: 1.64 µM
TGI [47]: 4.87 µM
GI50 [48]: 3.44 µM
TGI [48]: 13.7 µM
GI50 [49]: 2.09 µM
TGI [49]: 14.4 µM
GI50 [50]: 3.89 µM
TGI [50]: 8.92 µM
GI50 [51]: 2.35 µM
TGI [51]: 11.2 µM
GI50 [52]: 15.7 µM
TGI [52]: > 100 µM
GI50 [53]: 2.47 µM
TGI [53]: > 100 µM
GI50 [54]: 4.97 µM
TGI [54]: 23.1 µM
GI50 [55]: 2.66 µM
TGI [55]: 9.9 µM
GI50 [56]: 11.6 µM
TGI [56]: 30 µM

Source: PubChem BioAssay (NCI)
